Legend:
HSV, Type II = assay: Direct plaque-forming unit (PFU) count in BSC cells in defined media with set lysine (or derivative):arginine ratio; format: cell-based; settings: average of three tests
Description: Absorbed virons were absorbed in susceptible cells in chemically defined media and the number of plaques made were counted. (See Davis, B. D., et al., Microbiology, 2nd Ed., Harper & Row, 1973, Part V, and sources cited therein for procedural details and discussion of the plaque method.)
The cell line chosen was green monkey kidney cells (BSC) that have been passed greater than 41 times. […] The virons were added to a confluent lawn of BSC cells and allowed to absorb at 25° C. for one hour. The unabsorbed virons and the media were removed by washing three times in PBS. […] The control media contained a lysine/arginine ratio of 1:1. The plaques were counted when easily readable. Flasks are done in triplicate.

Herpes simplex II virus = assay: Back titration plaque assay: PFU counts at stated amounts of compound under test and arginine; format: cell-based, Herpes simplex II virus (BSC cells)
Description: The following experiments were conducted by back titration: Herpes simplex II virus from laboratory stocks was used. BSC cells were grown to confluence in Eagles medium with 15% fetal calf serum, 150 units per milliliter of penicillin and 100 micrograms per milliliter of streptomycin. The cultures were inoculated with 500 PFU of HS II. The virons were allowed to absorb for one hour at 25° C. The tissue cultures were then washed three times with sterile PBS to remove excess media and non-absorbed virons. The cells were then incubated at 37° C. until four-plus cytopathic effects were observed. The cells were then disrupted by slow freeze-thaw two times. The suspension was then clarified by slow speed centrifugation at 4° C. The supemanant suspension was then added to confluent BSC cultures. After one hour absorption, the cells were washed with PBS twice. The cells were overlaid in defined reagent (in triplicate) Eagles media in noble agar. The cells were then incubated at 37° C. until the plaques were easily counted, usually 40 t 72 hours. the cells were then washed two times with PBS and then fixed with 10% H2CO and a 2% sodium acetate. The cells were then stained in 0.1% crystal violet in ethanol. In the tables which follow the concentration of the compound to be tested, in micrograms per milliliter, is listed across the top of the table and the concentration of arginine in micrograms per milliliter is listed down the left side of the table, the count of plaque-forming units being shown in the matrix.

SMILES: CC(N)CCCC(N)C(=O)O (stereo not shown) [6-Methyl lysine]
- P.F.U. Count (HSV, Type II; Compound Ratio to Arginine 10:1): <5
- P.F.U. Count (HSV, Type II; Compound Ratio to Arginine 100:1): <5
- order of blocking the arginine molecule (rank of efficacy) (Herpes simplex II virus; among the tested derivatives): third most efficacious
- P.F.U. Count (Herpes simplex II virus; compound 10 μg/ml, arginine 0 μg/ml): 0
- P.F.U. Count (Herpes simplex II virus; compound 10 μg/ml, arginine 2.5 μg/ml): 0
- P.F.U. Count (Herpes simplex II virus; compound 10 μg/ml, arginine 5.0 μg/ml): 0
- P.F.U. Count (Herpes simplex II virus; compound 10 μg/ml, arginine 7.5 μg/ml): 0
- P.F.U. Count (Herpes simplex II virus; compound 10 μg/ml, arginine 10 μg/ml): 4.0 × 10^3
- P.F.U. Count (Herpes simplex II virus; compound 10 μg/ml, arginine 15 μg/ml): 1.8 × 10^3
- P.F.U. Count (Herpes simplex II virus; compound 10 μg/ml, arginine 20 μg/ml): 2.8 × 10^6
- P.F.U. Count (Herpes simplex II virus; compound 10 μg/ml, arginine 25 μg/ml): 2.7 × 10^5
- P.F.U. Count (Herpes simplex II virus; compound 25 μg/ml, arginine 0 μg/ml): 0
- P.F.U. Count (Herpes simplex II virus; compound 25 μg/ml, arginine 2.5 μg/ml): 0
- P.F.U. Count (Herpes simplex II virus; compound 25 μg/ml, arginine 5.0 μg/ml): 0
- P.F.U. Count (Herpes simplex II virus; compound 25 μg/ml, arginine 7.5 μg/ml): 0
- P.F.U. Count (Herpes simplex II virus; compound 25 μg/ml, arginine 10 μg/ml): 2.1 × 10^3
- P.F.U. Count (Herpes simplex II virus; compound 25 μg/ml, arginine 15 μg/ml): 2.1 × 10^3
- P.F.U. Count (Herpes simplex II virus; compound 25 μg/ml, arginine 20 μg/ml): 2.4 × 10^5
- P.F.U. Count (Herpes simplex II virus; compound 25 μg/ml, arginine 25 μg/ml): 2.9 × 10^5
- P.F.U. Count (Herpes simplex II virus; compound 50 μg/ml, arginine 0 μg/ml): 0
- P.F.U. Count (Herpes simplex II virus; compound 50 μg/ml, arginine 2.5 μg/ml): 0
- P.F.U. Count (Herpes simplex II virus; compound 50 μg/ml, arginine 5.0 μg/ml): 0
- P.F.U. Count (Herpes simplex II virus; compound 50 μg/ml, arginine 7.5 μg/ml): 0
- P.F.U. Count (Herpes simplex II virus; compound 50 μg/ml, arginine 10 μg/ml): 0
- P.F.U. Count (Herpes simplex II virus; compound 50 μg/ml, arginine 15 μg/ml): 1.7 × 10^3
- P.F.U. Count (Herpes simplex II virus; compound 50 μg/ml, arginine 20 μg/ml): 1.7 × 10^5
- P.F.U. Count (Herpes simplex II virus; compound 50 μg/ml, arginine 25 μg/ml): 2.0 × 10^5
- P.F.U. Count (Herpes simplex II virus; compound 100 μg/ml, arginine 0 μg/ml): 0
- P.F.U. Count (Herpes simplex II virus; compound 100 μg/ml, arginine 2.5 μg/ml): 0
- P.F.U. Count (Herpes simplex II virus; compound 100 μg/ml, arginine 5.0 μg/ml): 0
- P.F.U. Count (Herpes simplex II virus; compound 100 μg/ml, arginine 7.5 μg/ml): 0
- P.F.U. Count (Herpes simplex II virus; compound 100 μg/ml, arginine 10 μg/ml): 0
- P.F.U. Count (Herpes simplex II virus; compound 100 μg/ml, arginine 15 μg/ml): 0
- P.F.U. Count (Herpes simplex II virus; compound 100 μg/ml, arginine 20 μg/ml): 6.4 × 10^4
- P.F.U. Count (Herpes simplex II virus; compound 100 μg/ml, arginine 25 μg/ml): 5.8 × 10^4
- P.F.U. Count (Herpes simplex II virus; compound 200 μg/ml, arginine 0 μg/ml): 0
- P.F.U. Count (Herpes simplex II virus; compound 200 μg/ml, arginine 2.5 μg/ml): 0
- P.F.U. Count (Herpes simplex II virus; compound 200 μg/ml, arginine 5.0 μg/ml): 0
- P.F.U. Count (Herpes simplex II virus; compound 200 μg/ml, arginine 7.5 μg/ml): 0
- P.F.U. Count (Herpes simplex II virus; compound 200 μg/ml, arginine 10 μg/ml): 0
- P.F.U. Count (Herpes simplex II virus; compound 200 μg/ml, arginine 15 μg/ml): 0
- P.F.U. Count (Herpes simplex II virus; compound 200 μg/ml, arginine 20 μg/ml): 6.9 × 10^4
- P.F.U. Count (Herpes simplex II virus; compound 200 μg/ml, arginine 25 μg/ml): 4.7 × 10^4
- P.F.U. Count (Herpes simplex II virus; compound 300 μg/ml, arginine 0 μg/ml): 0
- P.F.U. Count (Herpes simplex II virus; compound 300 μg/ml, arginine 2.5 μg/ml): 0
- P.F.U. Count (Herpes simplex II virus; compound 300 μg/ml, arginine 5.0 μg/ml): 0
- P.F.U. Count (Herpes simplex II virus; compound 300 μg/ml, arginine 7.5 μg/ml): 0
- P.F.U. Count (Herpes simplex II virus; compound 300 μg/ml, arginine 10 μg/ml): 0
- P.F.U. Count (Herpes simplex II virus; compound 300 μg/ml, arginine 15 μg/ml): 0
- P.F.U. Count (Herpes simplex II virus; compound 300 μg/ml, arginine 20 μg/ml): 5.0 × 10^3
- P.F.U. Count (Herpes simplex II virus; compound 300 μg/ml, arginine 25 μg/ml): 4.0 × 10^4
- P.F.U. Count (Herpes simplex II virus; compound 400 μg/ml, arginine 0 μg/ml): 0
- P.F.U. Count (Herpes simplex II virus; compound 400 μg/ml, arginine 2.5 μg/ml): 0
- P.F.U. Count (Herpes simplex II virus; compound 400 μg/ml, arginine 5.0 μg/ml): 0
- P.F.U. Count (Herpes simplex II virus; compound 400 μg/ml, arginine 7.5 μg/ml): 0
- P.F.U. Count (Herpes simplex II virus; compound 400 μg/ml, arginine 10 μg/ml): 0
- P.F.U. Count (Herpes simplex II virus; compound 400 μg/ml, arginine 15 μg/ml): 0
- P.F.U. Count (Herpes simplex II virus; compound 400 μg/ml, arginine 20 μg/ml): 690
- P.F.U. Count (Herpes simplex II virus; compound 400 μg/ml, arginine 25 μg/ml): 3.9 × 10^3
- P.F.U. Count (Herpes simplex II virus; compound 500 μg/ml, arginine 0 μg/ml): 0
- P.F.U. Count (Herpes simplex II virus; compound 500 μg/ml, arginine 2.5 μg/ml): 0
- P.F.U. Count (Herpes simplex II virus; compound 500 μg/ml, arginine 5.0 μg/ml): 0
- P.F.U. Count (Herpes simplex II virus; compound 500 μg/ml, arginine 7.5 μg/ml): 0
- P.F.U. Count (Herpes simplex II virus; compound 500 μg/ml, arginine 10 μg/ml): 0
- P.F.U. Count (Herpes simplex II virus; compound 500 μg/ml, arginine 15 μg/ml): 0
- P.F.U. Count (Herpes simplex II virus; compound 500 μg/ml, arginine 20 μg/ml): 56
- P.F.U. Count (Herpes simplex II virus; compound 500 μg/ml, arginine 25 μg/ml): 3.71 × 10^3
